# Experimental data taken from paper PMC6891286, “Towards the Development of an In vivo Chemical Probe for Cyclin G Associated Kinase (GAK)” (Molecules, 2019).
# Key:
# Test in all cases: KINOMEscan
# Format in all cases: binding
# Conditions in all cases: 35 at 1 µM; read-out: % inhibition
# [1] = target: T1, ABL1(F317I)-phosphorylated (Homo sapiens, UniProt P00519, F317I)
# T1 construct: purchased Eurofins DiscoverX (KINOMEscan)
# Procedure: (§1) KinomeScan Assay on 35 was performed as previously described at EuroFins DiscoverX (Fremont, CA, USA).
# [2] = target: T2, ABL1(H396P)-phosphorylated (Homo sapiens, UniProt P00519, H396P)
# T2 construct: purchased Eurofins DiscoverX (KINOMEscan)
# Procedure: as §1
# [3] = target: T3, CAMK1B (Homo sapiens, UniProt Q6P2M8)
# T3 construct: purchased Eurofins DiscoverX (KINOMEscan)
# T3 sequence (Q6P2M8 whole entry): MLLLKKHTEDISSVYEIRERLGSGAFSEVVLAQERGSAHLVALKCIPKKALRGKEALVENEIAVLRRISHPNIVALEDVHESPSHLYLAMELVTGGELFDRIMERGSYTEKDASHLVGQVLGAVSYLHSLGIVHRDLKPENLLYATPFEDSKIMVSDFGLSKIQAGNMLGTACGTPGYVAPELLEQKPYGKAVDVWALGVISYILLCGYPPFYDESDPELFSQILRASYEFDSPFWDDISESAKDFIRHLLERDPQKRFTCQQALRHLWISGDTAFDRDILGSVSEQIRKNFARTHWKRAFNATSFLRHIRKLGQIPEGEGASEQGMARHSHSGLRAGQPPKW
# Procedure: as §1
# [4] = target: T4, CAMKK1 (Homo sapiens, UniProt Q8N5S9)
# T4 construct: purchased Eurofins DiscoverX (KINOMEscan)
# Procedure: as §1
# [5] = target: T5, CDK5 (Homo sapiens, UniProt Q00535)
# T5 construct: purchased Eurofins DiscoverX (KINOMEscan)
# T5 sequence (Q00535 whole entry): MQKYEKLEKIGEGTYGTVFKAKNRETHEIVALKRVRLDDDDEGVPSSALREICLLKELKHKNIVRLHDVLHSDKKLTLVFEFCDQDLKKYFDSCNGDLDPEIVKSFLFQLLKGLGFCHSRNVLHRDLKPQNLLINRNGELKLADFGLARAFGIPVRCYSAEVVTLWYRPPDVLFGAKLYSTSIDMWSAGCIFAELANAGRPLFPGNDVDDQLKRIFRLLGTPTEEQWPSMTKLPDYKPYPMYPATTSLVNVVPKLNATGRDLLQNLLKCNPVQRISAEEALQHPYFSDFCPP
# Procedure: as §1
# [6] = target: T6, CHEK2 (Homo sapiens, UniProt O96017)
# T6 construct: purchased Eurofins DiscoverX (KINOMEscan)
# Procedure: as §1
# [7] = target: T7, CLK4 (Homo sapiens, UniProt Q9HAZ1)
# T7 construct: purchased Eurofins DiscoverX (KINOMEscan)
# Procedure: as §1
# [8] = target: T8, CSNK1A1L (Homo sapiens, UniProt Q8N752)
# T8 construct: purchased Eurofins DiscoverX (KINOMEscan)
# T8 sequence (Q8N752 whole entry): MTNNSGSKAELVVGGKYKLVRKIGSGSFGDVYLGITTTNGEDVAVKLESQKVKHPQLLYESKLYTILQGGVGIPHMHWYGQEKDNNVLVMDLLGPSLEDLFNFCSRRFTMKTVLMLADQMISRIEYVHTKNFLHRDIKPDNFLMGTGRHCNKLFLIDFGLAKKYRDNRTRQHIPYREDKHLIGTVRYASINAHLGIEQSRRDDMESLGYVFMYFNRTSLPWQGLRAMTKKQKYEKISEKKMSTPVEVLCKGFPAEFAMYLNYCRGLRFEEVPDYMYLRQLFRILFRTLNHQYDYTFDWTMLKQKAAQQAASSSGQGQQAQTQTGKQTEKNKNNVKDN
# Procedure: as §1
# [9] = target: T9, CTK (Homo sapiens, UniProt P42679)
# T9 construct: purchased Eurofins DiscoverX (KINOMEscan)
# Procedure: as §1
# [10] = target: T10, DCAMKL1 (Homo sapiens, UniProt O15075)
# T10 construct: purchased Eurofins DiscoverX (KINOMEscan)
# Procedure: as §1
# [11] = target: T11, EGFR(L858R) (Homo sapiens, UniProt P00533, L858R)
# T11 construct: purchased Eurofins DiscoverX (KINOMEscan)
# Procedure: as §1
# [12] = target: T12, EIF2AK1 (Homo sapiens, UniProt Q9BQI3)
# T12 construct: purchased Eurofins DiscoverX (KINOMEscan)
# T12 sequence (Q9BQI3 whole entry): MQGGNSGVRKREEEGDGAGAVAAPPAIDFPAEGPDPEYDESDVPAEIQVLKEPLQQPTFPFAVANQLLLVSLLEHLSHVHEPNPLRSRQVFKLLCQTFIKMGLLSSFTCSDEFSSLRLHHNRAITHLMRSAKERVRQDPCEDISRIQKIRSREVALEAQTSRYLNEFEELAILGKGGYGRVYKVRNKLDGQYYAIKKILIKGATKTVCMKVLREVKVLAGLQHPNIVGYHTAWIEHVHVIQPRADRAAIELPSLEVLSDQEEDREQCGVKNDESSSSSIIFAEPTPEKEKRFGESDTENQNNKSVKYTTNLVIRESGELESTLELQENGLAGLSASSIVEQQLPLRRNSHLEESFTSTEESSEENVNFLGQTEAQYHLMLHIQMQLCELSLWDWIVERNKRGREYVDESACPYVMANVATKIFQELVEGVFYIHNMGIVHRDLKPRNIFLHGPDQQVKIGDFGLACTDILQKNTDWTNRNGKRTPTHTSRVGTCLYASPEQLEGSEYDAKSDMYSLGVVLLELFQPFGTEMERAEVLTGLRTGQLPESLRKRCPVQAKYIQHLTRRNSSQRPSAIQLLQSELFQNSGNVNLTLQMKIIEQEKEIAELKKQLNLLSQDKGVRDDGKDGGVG
# Procedure: as §1
# [13] = target: T13, EPHA2 (Homo sapiens, UniProt P29317)
# T13 construct: purchased Eurofins DiscoverX (KINOMEscan)
# Procedure: as §1
# [14] = target: T14, EPHA6 (Homo sapiens, UniProt Q9UF33)
# T14 construct: purchased Eurofins DiscoverX (KINOMEscan)
# Procedure: as §1
# [15] = target: T15, EPHB1 (Homo sapiens, UniProt P54762)
# T15 construct: purchased Eurofins DiscoverX (KINOMEscan)
# Procedure: as §1
# [16] = target: T16, ERK4 (Homo sapiens, UniProt P31152)
# T16 construct: purchased Eurofins DiscoverX (KINOMEscan)
# Procedure: as §1
# [17] = target: T17, ERN1 (Homo sapiens, UniProt O75460)
# T17 construct: purchased Eurofins DiscoverX (KINOMEscan)
# Procedure: as §1
# [18] = target: T18, FGFR3(G697C) (Homo sapiens, UniProt P22607, G697C)
# T18 construct: purchased Eurofins DiscoverX (KINOMEscan)
# Procedure: as §1
# [19] = target: T19, GRK2 (Homo sapiens, UniProt P25098)
# T19 construct: purchased Eurofins DiscoverX (KINOMEscan)
# Procedure: as §1
# [20] = target: T20, JNK3 (Homo sapiens, UniProt P53779)
# T20 construct: purchased Eurofins DiscoverX (KINOMEscan)
# Procedure: as §1
# [21] = target: T21, LRRK2 (Homo sapiens, UniProt Q5S007)
# T21 construct: purchased Eurofins DiscoverX (KINOMEscan)
# Procedure: as §1
# [22] = target: T22, LZK (Homo sapiens, UniProt O43283)
# T22 construct: purchased Eurofins DiscoverX (KINOMEscan)
# Procedure: as §1
# [23] = target: T23, MEK6 (Homo sapiens, UniProt P52564)
# T23 construct: purchased Eurofins DiscoverX (KINOMEscan)
# Procedure: as §1
# [24] = target: T24, MELK (Homo sapiens, UniProt Q14680)
# T24 construct: purchased Eurofins DiscoverX (KINOMEscan)
# T24 sequence (Q14680 whole entry): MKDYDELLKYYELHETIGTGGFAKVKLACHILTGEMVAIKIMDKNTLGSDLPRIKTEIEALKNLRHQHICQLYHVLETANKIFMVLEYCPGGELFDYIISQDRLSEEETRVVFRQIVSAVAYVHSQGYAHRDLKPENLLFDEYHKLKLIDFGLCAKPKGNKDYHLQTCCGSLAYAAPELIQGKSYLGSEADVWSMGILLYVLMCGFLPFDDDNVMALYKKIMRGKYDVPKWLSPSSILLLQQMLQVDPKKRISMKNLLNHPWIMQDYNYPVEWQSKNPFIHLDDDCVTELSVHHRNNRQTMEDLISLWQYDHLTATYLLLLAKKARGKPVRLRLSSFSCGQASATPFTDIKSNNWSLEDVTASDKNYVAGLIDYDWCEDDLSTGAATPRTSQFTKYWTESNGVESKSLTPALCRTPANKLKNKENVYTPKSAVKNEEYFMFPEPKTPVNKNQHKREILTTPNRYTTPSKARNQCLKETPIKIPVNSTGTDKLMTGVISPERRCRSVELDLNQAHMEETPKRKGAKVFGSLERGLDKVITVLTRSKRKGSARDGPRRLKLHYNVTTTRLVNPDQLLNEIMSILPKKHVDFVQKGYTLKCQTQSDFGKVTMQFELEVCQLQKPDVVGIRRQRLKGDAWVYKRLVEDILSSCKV
# Procedure: as §1
# [25] = target: T25, MKNK1 (Homo sapiens, UniProt Q9BUB5)
# T25 construct: purchased Eurofins DiscoverX (KINOMEscan)
# Procedure: as §1
# [26] = target: T26, MYLK (Homo sapiens, UniProt Q15746)
# T26 construct: purchased Eurofins DiscoverX (KINOMEscan)
# T26 sequence (Q15746 whole entry): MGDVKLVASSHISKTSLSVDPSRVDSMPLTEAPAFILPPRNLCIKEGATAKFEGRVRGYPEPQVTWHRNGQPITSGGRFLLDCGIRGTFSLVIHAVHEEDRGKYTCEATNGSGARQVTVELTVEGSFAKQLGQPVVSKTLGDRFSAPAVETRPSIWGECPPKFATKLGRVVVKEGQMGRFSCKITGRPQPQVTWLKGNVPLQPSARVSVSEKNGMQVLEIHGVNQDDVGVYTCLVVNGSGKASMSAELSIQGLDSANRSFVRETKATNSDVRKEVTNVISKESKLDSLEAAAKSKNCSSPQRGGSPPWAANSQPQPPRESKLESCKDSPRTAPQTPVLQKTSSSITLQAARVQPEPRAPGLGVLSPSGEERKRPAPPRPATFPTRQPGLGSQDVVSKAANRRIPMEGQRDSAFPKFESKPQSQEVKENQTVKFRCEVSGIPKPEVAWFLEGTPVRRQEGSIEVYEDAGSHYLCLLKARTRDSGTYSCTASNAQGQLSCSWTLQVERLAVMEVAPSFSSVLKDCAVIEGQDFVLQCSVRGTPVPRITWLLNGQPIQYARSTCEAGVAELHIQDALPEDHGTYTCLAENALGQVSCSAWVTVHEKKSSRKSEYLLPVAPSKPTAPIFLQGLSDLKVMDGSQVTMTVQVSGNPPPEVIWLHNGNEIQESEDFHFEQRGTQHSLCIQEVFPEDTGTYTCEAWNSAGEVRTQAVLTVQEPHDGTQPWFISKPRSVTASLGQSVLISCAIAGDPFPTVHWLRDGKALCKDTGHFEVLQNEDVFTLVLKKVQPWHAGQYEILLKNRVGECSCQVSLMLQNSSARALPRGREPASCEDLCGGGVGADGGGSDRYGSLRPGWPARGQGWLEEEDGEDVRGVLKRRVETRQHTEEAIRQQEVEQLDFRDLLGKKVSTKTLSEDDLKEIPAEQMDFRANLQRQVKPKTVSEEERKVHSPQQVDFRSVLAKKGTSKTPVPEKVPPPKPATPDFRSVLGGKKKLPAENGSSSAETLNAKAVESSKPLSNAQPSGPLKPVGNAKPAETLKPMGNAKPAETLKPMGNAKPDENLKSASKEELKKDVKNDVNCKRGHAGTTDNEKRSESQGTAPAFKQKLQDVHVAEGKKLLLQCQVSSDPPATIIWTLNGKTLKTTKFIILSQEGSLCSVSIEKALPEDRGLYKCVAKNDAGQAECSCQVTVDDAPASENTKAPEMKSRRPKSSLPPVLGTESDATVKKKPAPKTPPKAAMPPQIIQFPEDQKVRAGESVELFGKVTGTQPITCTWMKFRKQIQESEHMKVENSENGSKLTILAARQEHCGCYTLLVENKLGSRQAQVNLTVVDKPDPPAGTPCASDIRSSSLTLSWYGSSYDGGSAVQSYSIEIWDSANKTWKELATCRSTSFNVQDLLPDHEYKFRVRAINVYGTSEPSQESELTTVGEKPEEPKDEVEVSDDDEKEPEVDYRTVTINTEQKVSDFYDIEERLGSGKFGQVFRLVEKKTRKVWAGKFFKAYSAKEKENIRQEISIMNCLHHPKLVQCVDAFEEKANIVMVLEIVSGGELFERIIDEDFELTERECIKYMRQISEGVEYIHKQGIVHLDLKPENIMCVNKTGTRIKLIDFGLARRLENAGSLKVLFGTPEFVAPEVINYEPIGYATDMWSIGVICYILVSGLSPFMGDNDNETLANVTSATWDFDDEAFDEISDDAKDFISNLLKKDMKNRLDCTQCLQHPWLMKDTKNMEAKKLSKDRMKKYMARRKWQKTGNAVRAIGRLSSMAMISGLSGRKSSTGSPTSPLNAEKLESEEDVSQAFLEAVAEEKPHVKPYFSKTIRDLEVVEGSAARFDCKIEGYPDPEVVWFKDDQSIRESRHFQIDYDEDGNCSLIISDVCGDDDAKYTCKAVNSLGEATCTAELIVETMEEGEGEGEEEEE
# Procedure: as §1
# [27] = target: T27, PAK2 (Homo sapiens, UniProt Q13177)
# T27 construct: purchased Eurofins DiscoverX (KINOMEscan)
# Procedure: as §1
# [28] = target: T28, PCTK1 (Homo sapiens, UniProt Q00536)
# T28 construct: purchased Eurofins DiscoverX (KINOMEscan)
# Procedure: as §1
# [29] = target: T29, PCTK2 (Homo sapiens, UniProt Q00537)
# T29 construct: purchased Eurofins DiscoverX (KINOMEscan)
# Procedure: as §1
# [30] = target: T30, PCTK3 (Homo sapiens, UniProt Q07002)
# T30 construct: purchased Eurofins DiscoverX (KINOMEscan)
# Procedure: as §1
# [31] = target: T31, PIK3CA(H1047L) (Homo sapiens, UniProt P42336, H1047L)
# T31 construct: purchased Eurofins DiscoverX (KINOMEscan)
# Procedure: as §1
# [32] = target: T32, PRKG2 (Homo sapiens, UniProt Q13237)
# T32 construct: purchased Eurofins DiscoverX (KINOMEscan)
# Procedure: as §1
# [33] = target: T33, RPS6KA4(Kin.Dom.1-N-terminal) (Homo sapiens, UniProt O75676)
# T33 construct: RPS6KA4(Kin.Dom.1-N-terminal); purchased Eurofins DiscoverX (KINOMEscan)
# T33 sequence (O75676 1-371 limits assumed): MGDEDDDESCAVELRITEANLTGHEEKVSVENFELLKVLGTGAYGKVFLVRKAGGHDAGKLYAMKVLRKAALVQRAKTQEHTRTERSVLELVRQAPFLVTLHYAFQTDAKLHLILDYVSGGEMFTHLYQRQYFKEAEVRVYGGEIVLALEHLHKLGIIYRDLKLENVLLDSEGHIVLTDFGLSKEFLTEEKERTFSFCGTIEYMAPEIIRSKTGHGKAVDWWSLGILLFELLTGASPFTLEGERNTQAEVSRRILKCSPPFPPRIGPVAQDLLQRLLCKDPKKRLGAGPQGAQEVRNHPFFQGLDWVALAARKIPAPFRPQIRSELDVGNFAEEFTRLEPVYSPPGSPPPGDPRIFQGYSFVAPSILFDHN
# Procedure: as §1
# [34] = target: T34, RPS6KA4(Kin.Dom.2-C-terminal) (Homo sapiens, UniProt O75676)
# T34 construct: RPS6KA4(Kin.Dom.2-C-terminal); purchased Eurofins DiscoverX (KINOMEscan)
# Procedure: as §1
# [35] = target: T35, RPS6KA5(Kin.Dom.2-C-terminal) (Homo sapiens, UniProt O75582)
# T35 construct: RPS6KA5(Kin.Dom.2-C-terminal); purchased Eurofins DiscoverX (KINOMEscan)
# Procedure: as §1
# [36] = target: T36, S6K1 (Homo sapiens, UniProt P23443)
# T36 construct: purchased Eurofins DiscoverX (KINOMEscan)
# Procedure: as §1
# [37] = target: T37, SIK (Homo sapiens, UniProt P57059)
# T37 construct: purchased Eurofins DiscoverX (KINOMEscan)
# Procedure: as §1
# [38] = target: T38, SRMS (Homo sapiens, UniProt Q9H3Y6)
# T38 construct: purchased Eurofins DiscoverX (KINOMEscan)
# T38 sequence (Q9H3Y6 whole entry): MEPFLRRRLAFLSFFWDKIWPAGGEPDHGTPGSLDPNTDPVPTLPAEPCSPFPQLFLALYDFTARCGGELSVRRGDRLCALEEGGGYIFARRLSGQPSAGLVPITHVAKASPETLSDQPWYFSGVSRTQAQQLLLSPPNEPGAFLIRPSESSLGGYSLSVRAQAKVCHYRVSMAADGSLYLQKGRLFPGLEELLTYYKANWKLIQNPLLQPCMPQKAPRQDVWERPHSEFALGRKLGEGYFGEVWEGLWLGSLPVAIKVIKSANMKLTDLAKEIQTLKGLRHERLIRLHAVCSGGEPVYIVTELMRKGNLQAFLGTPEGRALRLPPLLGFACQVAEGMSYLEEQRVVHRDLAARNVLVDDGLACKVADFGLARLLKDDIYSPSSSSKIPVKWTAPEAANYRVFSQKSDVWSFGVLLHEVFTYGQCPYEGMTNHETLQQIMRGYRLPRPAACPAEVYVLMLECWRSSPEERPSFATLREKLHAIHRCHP
# Procedure: as §1
# [39] = target: T39, TAOK2 (Homo sapiens, UniProt Q9UL54)
# T39 construct: purchased Eurofins DiscoverX (KINOMEscan)
# Procedure: as §1
# [40] = target: T40, VEGFR2 (Homo sapiens, UniProt P35968)
# T40 construct: purchased Eurofins DiscoverX (KINOMEscan)
# Procedure: as §1
# [41] = target: T41, ZAP70 (Homo sapiens, UniProt P43403)
# T41 construct: purchased EuroFins DiscoverX (Fremont, CA, USA)
# Procedure: as §1
compound,measurement,setting,value
"Brc1ccc2nccc(Nc3ccc4cn[nH]c4c3)c2c1 [Compound 35, 6-Bromo-N-(1H-indazol-6-yl)quinolin-4-amine]",activity at 1 µM,[1],100%
same,activity at 1 µM,[2],100%
same,activity at 1 µM,[3],92%
same,activity at 1 µM,[4],100%
same,activity at 1 µM,[5],100%
same,activity at 1 µM,[6],65%
same,activity at 1 µM,[7],100%
same,activity at 1 µM,[8],96%
same,activity at 1 µM,[9],93%
same,activity at 1 µM,[10],99%
same,activity at 1 µM,[11],100%
same,activity at 1 µM,[12],92%
same,activity at 1 µM,[13],100%
same,activity at 1 µM,[14],100%
same,activity at 1 µM,[15],100%
same,activity at 1 µM,[16],97%
same,activity at 1 µM,[17],91%
same,activity at 1 µM,[18],100%
same,activity at 1 µM,[19],100%
same,activity at 1 µM,[20],100%
same,activity at 1 µM,[21],100%
same,activity at 1 µM,[22],100%
same,activity at 1 µM,[23],100%
same,activity at 1 µM,[24],100%
same,activity at 1 µM,[25],79%
same,activity at 1 µM,[26],100%
same,activity at 1 µM,[27],85%
same,activity at 1 µM,[28],98%
same,activity at 1 µM,[29],100%
same,activity at 1 µM,[30],100%
same,activity at 1 µM,[31],87%
same,activity at 1 µM,[32],100%
same,activity at 1 µM,[33],100%
same,activity at 1 µM,[34],100%
same,activity at 1 µM,[35],70%
same,activity at 1 µM,[36],91%
same,activity at 1 µM,[37],100%
same,activity at 1 µM,[38],87%
same,activity at 1 µM,[39],91%
same,activity at 1 µM,[40],100%
same,activity at 1 µM,[41],100%
